What follows are molecules tested against T1, human calcium-sensing receptor (CaSR) (Homo sapiens, UniProt P41180) (assay: intracellular Ca assay, CaSR antagonist activity in HEK293/hCaSR cells). Details: Fura2-AM, inhibition of response to calcium chloride ligand solution, read-out: IC50 values according to the intracellular Ca assay (CaSR antagonist activity).
T1 construct: expressed in transfected cells
T1 sequence (P41180 20-1078): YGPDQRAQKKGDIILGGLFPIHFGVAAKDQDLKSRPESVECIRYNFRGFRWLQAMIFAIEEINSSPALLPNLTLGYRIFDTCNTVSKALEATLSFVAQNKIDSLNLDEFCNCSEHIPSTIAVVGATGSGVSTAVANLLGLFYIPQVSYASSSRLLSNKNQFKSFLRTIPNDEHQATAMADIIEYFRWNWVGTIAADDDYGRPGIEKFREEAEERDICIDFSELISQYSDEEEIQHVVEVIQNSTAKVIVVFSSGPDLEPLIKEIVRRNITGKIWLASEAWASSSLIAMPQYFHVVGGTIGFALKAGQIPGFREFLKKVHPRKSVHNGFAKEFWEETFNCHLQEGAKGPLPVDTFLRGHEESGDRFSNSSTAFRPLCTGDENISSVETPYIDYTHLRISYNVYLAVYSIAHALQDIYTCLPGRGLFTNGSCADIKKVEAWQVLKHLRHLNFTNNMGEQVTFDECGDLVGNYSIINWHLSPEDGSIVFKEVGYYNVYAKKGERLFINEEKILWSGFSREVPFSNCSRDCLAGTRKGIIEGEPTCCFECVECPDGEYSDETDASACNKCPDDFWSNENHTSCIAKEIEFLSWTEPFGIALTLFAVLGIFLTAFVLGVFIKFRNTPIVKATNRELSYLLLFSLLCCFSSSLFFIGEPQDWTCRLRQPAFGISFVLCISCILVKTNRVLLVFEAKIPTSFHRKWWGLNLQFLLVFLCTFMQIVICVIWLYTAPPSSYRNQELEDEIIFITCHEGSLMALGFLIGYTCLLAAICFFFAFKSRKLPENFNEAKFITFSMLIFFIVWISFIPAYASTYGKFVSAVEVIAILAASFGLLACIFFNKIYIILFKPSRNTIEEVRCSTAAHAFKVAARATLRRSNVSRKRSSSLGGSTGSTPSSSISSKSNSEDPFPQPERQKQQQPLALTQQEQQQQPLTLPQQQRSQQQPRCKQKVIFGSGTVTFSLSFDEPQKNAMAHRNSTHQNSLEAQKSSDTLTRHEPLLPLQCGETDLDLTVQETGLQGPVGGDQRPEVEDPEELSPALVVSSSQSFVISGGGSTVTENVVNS
Format: cell-based
Summary of the method: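 HEK293/hCaSR cells were loaded with Fura2-AM and pre-incubated with compound for 160 s at 37° C in HEPES buffer (pH 7.4, 0.8 mM CaCl2), then challenged with calcium ligand solution. Read-out was the peak 340/380 nm fluorescence ratio; inhibition is relative to no-compound (0%) and no-calcium-ligand (100%) controls.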

| IC50 [nM] | SMILES |
| --- | --- |
| ≤ 300 | CN(C[C@H](O)CNC(C)(C)CC1Cc2ccccc2C1)S(=O)(=O)c1ccc(-c2cccc(CCC(=O)O)n2)c(Cl)c1 [Exp. 9-161, (R)-3-(6-(2-chloro-4-(N-(3-(1-(2,3-dihydro-1H-inden-2-yl)-2-methylpropan-2-ylamino)-2-hydroxypropyl)-N-methylsulfamoyl)phenyl)pyridin-2-yl)propionic acid] |
| ≤ 300 | CN(C[C@H](O)CNC(C)(C)CC1Cc2ccccc2C1)S(=O)(=O)c1ccc(-c2ccc(C(=O)O)c(Cl)c2)cc1C(F)(F)F [Exp. 3-213, (R)-3-chloro-4′-(N-(3-(1-(2,3-dihydro-1H-inden-2-yl)-2-methylpropan-2-ylamino)-2-hydroxypropyl)-N-methylsulfamoyl)-3′-(trifluoromethyl)biphenyl-4-carboxylic acid] |
| 1000 to 3000 | CN(C[C@H](O)CNC(C)(C)Cc1ccc2ccccc2c1)S(=O)(=O)Cc1cccc(-c2ccc(CCC(=O)O)cc2)c1 [Exp. 3-87, (R)-3-(3′-((N-(2-hydroxy-3-(2-methyl-1-(naphthalen-2-yl)propan-2-ylamino)propyl)-N-methylsulfamoyl)methyl)biphenyl-4-yl)propionic acid] |
| ≤ 300 | CN(C[C@H](O)CNC(C)(C)CC1Cc2ccccc2C1)S(=O)(=O)c1ccc(-c2cc(CCC(=O)O)ccc2F)cc1C(F)(F)F [Exp. 5-18, (R)-3-(4′-(N-(3-(1-(2,3-dihydro-1H-inden-2-yl)-2-methylpropan-2-ylamino)-2-hydroxypropyl)-N-methylsulfamoyl)-6-fluoro-3′-(trifluoromethyl)biphenyl-3-yl)propionic acid] |
| ≤ 300 | CN(C[C@H](O)CNC(C)(C)CCCc1ccsc1)S(=O)(=O)c1cc(-c2ccc(CCC(=O)O)cc2)cc(C(F)(F)F)c1 [Exp. 9-75, (R)-3-(3′-(N-(2-hydroxy-3-(2-methyl-5-(thiophen-3-yl)pentan-2-ylamino)propyl)-N-methylsulfamoyl)-5′-(trifluoromethyl)biphenyl-4-yl)propionic acid] |
| ≤ 300 | CN(C[C@H](O)CNC(C)(C)CCCc1ccccc1)S(=O)(=O)c1ccc(-c2ccc(CCC(=O)O)cc2)c(Cl)c1 [Exp. 3-114, (R)-3-(2′-chloro-4′-(N-(2-hydroxy-3-(2-methyl-5-phenylpentan-2-ylamino)propyl)-N-methylsulfamoyl)biphenyl-4-yl)propionic acid] |
| ≤ 300 | CN(C[C@H](O)CNC(C)(C)CCCc1ccccc1)S(=O)(=O)c1c(Cl)cc(-c2cccc(CCC(=O)O)c2)cc1Cl [Exp. 6-6, (R)-3-(3′,5′-dichloro-4′-(N-(2-hydroxy-3-(2-methyl-5-phenylpentan-2-ylamino)propyl)-N-methylsulfamoyl)biphenyl-3-yl)propionic acid] |
| ≤ 300 | CN(C[C@H](O)CNC(C)(C)Cc1ccc2ccccc2c1)S(=O)(=O)c1ccc(-c2cc(F)c(C(=O)O)c(F)c2)cc1 [Exp. 3-48, (R)-3,5-difluoro-4′-(N-(2-hydroxy-3-(2-methyl-1-(naphthalen-2-yl)propan-2-ylamino)propyl)-N-methylsulfamoyl)biphenyl-4-carboxylic acid] |
| ≤ 300 | CN(C[C@H](O)CNC(C)(C)CCCc1ccccc1)S(=O)(=O)c1cc(-c2ccc(CCC(=O)O)cc2)cc(C(F)(F)F)c1 [Exp. 9-56, (R)-3-(3′-(N-(2-hydroxy-3-(2-methyl-5-phenylpentan-2-ylamino)propyl)-N-methylsulfamoyl)-5′-(trifluoromethyl)biphenyl-4-yl)propionic acid] |
| ≤ 300 | CN(C[C@H](O)CNC(C)(C)CCCc1ccccc1)S(=O)(=O)c1ccc(-c2cccc(CCC(=O)O)c2)c(Cl)c1 [Exp. 3-185, (R)-3-(2′-chloro-4′-(N-(2-hydroxy-3-(2-methyl-5-phenylpentan-2-ylamino)propyl)-N-methylsulfamoyl)biphenyl-3-yl)propionic acid] |
| 1000 to 3000 | CN(C[C@H](O)CNC(C)(C)Cc1ccc2ccccc2c1)S(=O)(=O)c1cccc(-c2cc(C(=O)O)cc([N+](=O)[O-])c2)c1 [Exp. 3-18, (R)-3′-(N-(2-hydroxy-3-(2-methyl-1-(naphthalen-2-yl)propan-2-ylamino)propyl)-N-methylsulfamoyl)-5-nitrobiphenyl-3-carboxylic acid] |
| ≤ 300 | CCc1cc(-c2cccc(CCC(=O)O)c2)ccc1S(=O)(=O)N(C)C[C@H](O)CNC(C)(C)CCCc1ccccc1 [Exp. 3-187, (R)-3-(3′-ethyl-4′-(N-(2-hydroxy-3-(2-methyl-5-phenylpentan-2-ylamino)propyl)-N-methylsulfamoyl)biphenyl-3-yl)propionic acid] |
| ≤ 300 | CN(C[C@H](O)CNC(C)(C)Cc1ccc2ccccc2c1)S(=O)(=O)c1cccc(-c2cc(F)cc(C(=O)O)c2)c1 [Exp. 3-23, (R)-5-fluoro-3′-(N-(2-hydroxy-3-(2-methyl-1-(naphthalen-2-yl)propan-2-ylamino)propyl)-N-methylsulfamoyl)biphenyl-3-carboxylic acid] |
| 1000 to 3000 | Cc1ccc(CC(C)(C)NC[C@@H](O)CN(C)S(=O)(=O)c2cccc(-c3cc(F)cc(C(=O)O)c3)c2)cc1F [Exp. 3-71, (R)-5-fluoro-3′-(N-(3-(1-(3-fluoro-4-methylphenyl)-2-methylpropan-2-ylamino)-2-hydroxypropyl)-N-methylsulfamoyl)biphenyl-3-carboxylic acid] |
| ≤ 300 | CCc1cc(-c2ccc(OC)c(CCC(=O)O)c2)ccc1S(=O)(=O)N(C)C[C@H](O)CNC(C)(C)CCCc1ccccc1 [Exp. 5-30, (R)-3-(3′-ethyl-4′-(N-(2-hydroxy-3-(2-methyl-5-phenylpentan-2-ylamino)propyl)-N-methylsulfamoyl)-4-methoxybiphenyl-3-yl)propionic acid] |
| ≤ 300 | CCc1cc(-c2ccc(CCCC(=O)O)cc2)ccc1S(=O)(=O)N(C)C[C@H](O)CNC(C)(C)CCCc1ccccc1 [Exp. 5-77, (R)-4-(3′-ethyl-4′-(N-(2-hydroxy-3-(2-methyl-5-phenylpentan-2-ylamino)propyl)-N-methylsulfamoyl)biphenyl-4-yl)butanoic acid] |
| ≤ 300 | CN(C[C@H](O)CNC(C)(C)CC1Cc2ccccc2C1)S(=O)(=O)c1cc(-c2cccc(CC(=O)O)c2)cc(C(F)(F)F)c1 [Exp. 3-154, (R)-2-(3′-(N-(3-(1-(2,3-dihydro-1H-inden-2-yl)-2-methylpropan-2-ylamino)-2-hydroxypropyl)-N-methylsulfamoyl)-5′-(trifluoromethyl)biphenyl-3-yl)acetic acid] |
| 300 to 1000 | COCc1cc(-c2cccc(S(=O)(=O)N(C)C[C@H](O)CNC(C)(C)Cc3ccc4ccccc4c3)c2)ccc1C(=O)O [Exp. 3-22, (R)-3′-(N-(2-hydroxy-3-(2-methyl-1-(naphthalen-2-yl)propan-2-ylamino)propyl)-N-methylsulfamoyl)-3-(methoxymethyl)biphenyl-4-carboxylic acid] |
| ≤ 300 | Cc1c(C(=O)O)cccc1-c1cccc(S(=O)(=O)N(C)C[C@H](O)CNC(C)(C)CC2Cc3ccccc3C2)c1 [Exp. 3-92, (R)-3′-(N-(3-(1-(2,3-dihydro-1H-inden-2-yl)-2-methylpropan-2-ylamino)-2-hydroxypropyl)-N-methylsulfamoyl)-2-methylbiphenyl-3-carboxylic acid] |
| ≤ 300 | CN(C[C@H](O)CNC(C)(C)CC1Cc2ccccc2C1)S(=O)(=O)c1ccc(-c2cccc(C(=O)O)c2)cc1C(F)(F)F [Exp. 3-124, (R)-4′-(N-(3-(1-(2,3-dihydro-1H-inden-2-yl)-2-methylpropan-2-ylamino)-2-hydroxypropyl)-N-methylsulfamoyl)-3′-(trifluoromethyl)biphenyl-3-carboxylic acid] |
| 300 to 1000 | CN(C[C@H](O)CNC(C)(C)Cc1ccc2ccccc2c1)S(=O)(=O)c1ccc(-c2cccc(C=CC(=O)O)c2)cc1 [Exp. 3-39, (R)-3-(4′-(N-(2-hydroxy-3-(2-methyl-1-(naphthalen 2-yl)propan-2-ylamino)propyl)-N-methylsulfamoyl)biphenyl-3-yl)acrylic acid] |
| 300 to 1000 | CN(C[C@H](O)CNC(C)(C)Cc1ccc2ccccc2c1)S(=O)(=O)c1cccc(-c2cc(F)c(C(=O)O)c(F)c2)c1 [Exp. 3-25, (R)-3,5-difluoro-3′-(N-(2-hydroxy-3-(2-methyl-1-(naphthalen-2-yl)propan-2-ylamino)propyl)-N-methylsulfamoyl)biphenyl-4-carboxylic acid] |
